Structures can show the parent of a compound that is named as a salt. Where two headings read alike, the source gives them in different places.
Key:
[1] = biological target: T1, 5-HT2 receptors (Rattus norvegicus, UniProt P14842); assay: Inhibition of 3H-Ketanserin binding to 5-HT2 receptors in membranes from rat cortex in vitro; details: 0,5 nM 3H-ketanserin
T1 construct: 5-HT2 receptors in membranes from rat; from tissue; host or cells: rat cortex membranes
Experimental: Inhibition of ^3 H-Ketanserin Binding To 5-HT2 Receptors in […] Cortex in vitro
By this method the inhibition by drugs of the binding of ^3 H-Ketanserin (0,5 nM) to 5-HT2 receptors in membranes from rat is determined in vitro. The method is described in Hyttel, Pharmacology & Toxicology 61, 126-129, 1987.

[2] = biological target: T2, dopamine D2 receptors (Rattus norvegicus, UniProt P61169); assay: Inhibition of 3H-Spiperone binding to dopamine D2 receptors in rat corpus striatum in vitro; details: 0.5 nM 3H-spiperone, rat corpus striatum membranes, read-out: Dopamine D2 binding [^3 H]-spiroperidol
T2 construct: dopamine D2 receptors in membranes from rat corpus striatum; from tissue; host or cells: rat corpus striatum membranes
Experimental: Inhibition of ^3 H-Spiperone Binding to Dopamine D2 Receptors in Rat Corpus Striatum in vitro
By this method the inhibition by drugs of the binding of ^3 H-spiperone (0.5 nM) to dopamine D2 receptors in membranes from rat corpus striatum is determined in vitro.

[3] = tested on: 5-HT2; assay: Quipazine inhibition (quipazine induced head twitches in rats); type: in vivo; details: Rattus norvegicus
Text: Quipazine is a 5-HT2 agonist, which induces head twitches in rats.

[4] = Catalepsy in rats (vertical wire mesh); details: rat, in vivo, 1-6 hours, sc
Experimental: Evaluation of catalepsy is made according to Arnt (Eur. J. Pharmacol. 90, 47-55 (1983)). Test compound is given s.c. in different doses. The rat (170-240 g) is placed on a vertical wire mesh (mesh diameter 12 mm). The rat is considered cataleptogenic if it remains immobile for more than 15 sec. The maximum number of rats showing catalepsy within the first 6 hours is recorded for each dose group. The results are recorded in fractions and an ED50 value is calculated by means of log-probit analysis.

[5] = in vivo; cited from earlier work
[6] = po, 24 h, read-out: Quipazine inhibition 24 hours (po) ED50
[7] = sc, 2 h, read-out: Quipazine inhibition 2 hours (sc) ED50
[8] = rats, 2 hours, sc, read-out: Quipazine inhibition 2 hours (sc) ED50
[9] = rats, 24 hours, po, read-out: Quipazine inhibition 24 hours (po) ED50

T2 sequence (P61169 whole entry): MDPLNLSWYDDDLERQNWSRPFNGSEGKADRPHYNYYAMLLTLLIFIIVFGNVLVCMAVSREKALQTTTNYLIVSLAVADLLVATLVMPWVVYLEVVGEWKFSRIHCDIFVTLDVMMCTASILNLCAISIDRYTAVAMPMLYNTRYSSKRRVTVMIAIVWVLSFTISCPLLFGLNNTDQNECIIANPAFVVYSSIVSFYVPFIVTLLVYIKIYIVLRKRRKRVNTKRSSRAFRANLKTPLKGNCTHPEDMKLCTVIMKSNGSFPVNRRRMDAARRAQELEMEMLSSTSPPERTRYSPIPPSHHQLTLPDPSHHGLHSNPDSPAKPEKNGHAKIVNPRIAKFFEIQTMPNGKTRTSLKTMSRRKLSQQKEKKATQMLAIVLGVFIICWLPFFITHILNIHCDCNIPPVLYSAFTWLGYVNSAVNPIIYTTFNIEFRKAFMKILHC
T1 sequence (P14842 whole entry): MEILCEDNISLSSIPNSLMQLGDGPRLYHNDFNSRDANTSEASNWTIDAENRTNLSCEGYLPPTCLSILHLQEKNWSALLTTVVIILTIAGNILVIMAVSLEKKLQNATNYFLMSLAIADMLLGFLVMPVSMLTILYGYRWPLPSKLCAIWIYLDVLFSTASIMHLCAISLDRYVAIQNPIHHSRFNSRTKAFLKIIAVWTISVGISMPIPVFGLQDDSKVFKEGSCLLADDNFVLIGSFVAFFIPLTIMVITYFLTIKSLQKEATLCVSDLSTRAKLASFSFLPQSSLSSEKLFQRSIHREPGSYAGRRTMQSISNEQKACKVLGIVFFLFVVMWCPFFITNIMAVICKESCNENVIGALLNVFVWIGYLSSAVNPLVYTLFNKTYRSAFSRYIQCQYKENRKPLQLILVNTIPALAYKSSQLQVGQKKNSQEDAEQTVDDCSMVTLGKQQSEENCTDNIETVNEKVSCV

Compound	IC50 [1] [nM]	IC50 [2] [nM]	ED50 [3, 6] [µmol/kg]	ED50 [3, 7] [µmol/kg]	ED50 at 6 h [4] [µmol/kg]	ED50 [3, 8] [µmol/kg]	ED50 [3, 9] [µmol/kg]	anxiolytic activity [5]
O=C1NCC(O)N1CCN1CCC(c2cn(-c3ccc(F)cc3)c3ccc(Cl)cc23)CC1 (centres unmarked) [Compound 1, 1-[2-[4-[5-chloro-1-(4-fluorophenyl)-1H-indol-3-yl]piperidin-1-yl]ethyl]-5-hydroxyimidazolidin-2-one]	1.4	5.5	0.085	0.099	39	–	–	–
COC1CNC(=O)N1CCN1CCC(c2cn(-c3ccc(F)cc3)c3ccc(Cl)cc23)CC1 (centres unmarked) [Compound 3, 1-[2-[4-[5-chloro-1-(4-fluorophenyl)-1H-indol-3-yl]piperidin-1-yl]ethyl]-5-methoxyimidazolidin-2-one, fumarate]	1.5	13	–	–	17	–	–	–
[2H]C1([2H])NC(=O)N(CCN2CCC(c3cn(-c4ccc(F)cc4)c4ccc(Cl)cc34)CC2)C1([2H])[2H] [Compound 4, 1-[2-[4-[5-Chloro-1-(4-fluorophenyl)-1H-indol-3-yl]piperidin-1-yl]ethyl]-4,4,5,5-tetradeuteroimidazolidin-2-one]	–	–	–	–	> 45	0.07	< 0.0056	–
[2H]C1([2H])CN(CCN2CCC(c3cn(-c4ccc(F)cc4)c4ccc(Cl)cc34)CC2)C(=O)N1 [Compound 5, 1-[2-[4-[5-Chloro-1-(4-fluorophenyl)-1H-indol-3-yl]piperidin-1-yl]ethyl]-4,4-dideuteroimidazolidin-2-one]	–	–	–	–	> 45	0.055	0.0097	–
[2H]C1([2H])CNC(=O)N1CCN1CCC(c2cn(-c3ccc(F)cc3)c3ccc(Cl)cc23)CC1 [Compound 6, 1-[2-[4-[5-Chloro-1-(4-fluorophenyl)-1H-indol-3-yl]piperidin-1-yl]ethyl]-5,5-dideuteroimidazolidin-2-one]	–	–	–	–	30	0.02	0.012	–
O=C1NC(O)C(=O)N1CCN1CCC(c2cn(-c3ccc(F)cc3)c3ccc(Cl)cc23)CC1 (centres unmarked) [Compound 7a, 1-[2-[4-[5-Chloro-1-(4-fluorophenyl)-1H-indol-3-yl]piperidin-1-yl]ethyl]-4-hydroxyimidazolidin-2,5-dione]	6.6	18	–	–	> 42	–	–	–
O=C1NC(=O)N(CCN2CCC(c3cn(-c4ccc(F)cc4)c4ccc(Cl)cc34)CC2)C1O (centres unmarked) [Compound 7b, 1-[2-[4-[5-chloro-1-(4-fluorophenyl)-1H-indol-3-yl]piperidin-1-yl]ethyl]-5-hydroxyimidazolidin-2,4-dione]	9.8	23	–	–	> 21	–	–	–
CC1(C)CN(CCN2CCC(c3cn(-c4ccc(F)cc4)c4ccc(Cl)cc34)CC2)C(=O)N1 [Compound 8, 1-[2-[4-[5-Chloro-1-(4-fluorophenyl)-1H-indol-3-yl]piperidin-1-yl]ethyl]-4,4-dimethylimidazolidin-2-one]	2	18	0.013	0.035	> 43	–	–	–
CC1(C)CNC(=O)N1CCN1CCC(c2cn(-c3ccc(F)cc3)c3ccc(Cl)cc23)CC1 [Compound 9, 1-[2-[4-[5-Chloro-1-(4-fluorophenyl)-1H-indol-3-yl]piperidin-1-yl]ethyl]-5,5-dimethylimidazolidin-2-one]	1.7	14	0.078	0.13	> 43	–	–	–
CC1(C)C(=O)NC(=O)N1CCN1CCC(c2cn(-c3ccc(F)cc3)c3ccc(Cl)cc23)CC1 [Compound 10, 1-[2-[4-[5-Chloro-1-(4-fluorophenyl)-1H-indol-3-yl]piperidin-1-yl]ethyl]-5,5-dimethylimidazolidin-2,4-dione]	12	20	–	0.33	> 30	–	–	–
O=C1NC(O)C(O)N1CCN1CCC(c2cn(-c3ccc(F)cc3)c3ccc(Cl)cc23)CC1 (centres unmarked) [Compound 11, 1-[2-[4-[5-chloro-1-(4-fluorophenyl)-1H-indol-3-yl]piperidin-1-yl]ethyl]-4,5-dihydroxyimidazolidin-2-one]	2.5	18	–	–	–	–	–	–
O=C1NC2(CCCC2)CN1CCN1CCC(c2cn(-c3ccc(F)cc3)c3ccc(Cl)cc23)CC1 [Compound 12, 3-[2-[4-[5-Chloro-1-(4-fluorophenyl)-1H-indol-3-yl]piperidin-1-yl]ethyl]-1,3-diazaspiro[4.4]nonan-2-one]	4.7	19	0.037	0.076	> 40	–	–	–
O=C1NCC2(CCCC2)N1CCN1CCC(c2cn(-c3ccc(F)cc3)c3ccc(Cl)cc23)CC1 [Compound 13, 1-[2-[4-[5-Chloro-1-(4-fluorophenyl)-1H-indol-3-yl]piperidin-1-yl]ethyl]-1,3-diazaspiro[4.4]nonan-2-one]	4.5	30	0.45	0.088	> 40	–	–	–
O=C1NCCN1CCN1CCC(c2cn(-c3ccc(F)cc3)c3ccc(Cl)cc23)CC1 [sertindole, 1-[2-[4-[5-chloro-1-(4-fluorophenyl)-1H-indol-3-yl]piperidin-1-yl]ethyl]-2-imidazolidinone, reference compound]	–	–	–	–	> 91	0.035	0.039	found to show anxiolytic activity

From US5703087A, “Phenyl indole compounds” (H. Lundbeck A/S, priority 1993, dated 1997)
